“And” between values parts separate entries of the source, which are not always exact repeats. Equal values may be shown once. Read-outs that look alike come from different tables or passages of the source. Values belong to the compound of their own block, whether it stands above or below them.
Experiments:
HepG2 cells [1] = test: MTT antiproliferative assay on HepG2; type: cell-based; conditions: mean ± S.D. (n = 3), read-out: Cytotoxicity in IC50, HepG2
Description: (§1) The antiproliferative activity of the thiophene compounds 3a–g, 4a–c, 6a, and 7a–d was evaluated by an in vitro MTT colorimetric assay on two oncogenic cell lines: liver (HepG2) and prostate (PC-3).
(§2) All cell lines (HepG2, PC-3, and nontumorigenic WI38) were supplied from VACSERA (Cairo, Egypt), cultured in DMEM (Invitrogen/Life Technologies, Waltham, MA, USA) at a density of 1.2–1.8 × 10,000 cells/well in a volume of 100 µL of the growth medium, and then incubated for 24 h, and an MTT assay was done as reported by.

PC-3 cells = test: MTT antiproliferative assay on PC-3; type: cell-based; conditions: Homo sapiens, PC-3, MTT assay; mean ± S.D. (n = 3); read-out: Cytotoxicity in IC50, PC-3
Description: as §1, §2

[2] = MTT assay on normal nononcogenic cell line WI38; type: cell-based; conditions: human, WI38 cells (normal nononcogenic cell line); MTT assay; noncancerous cell line; mean ± S.D. (n = 3); read-out: Cytotoxicity in IC50, WI38
Description: (§3) The aforementioned results illustrate that compounds 3b and 4c are the most promising cytotoxic agents on both cell lines and will be subjected to a thorough mechanistic study to understand their anticancer activity. However, before doing this, their selective toxicity and, thus, their safety were evaluated by measuring the IC50 values against the normal nononcogenic cell line (Wl38) by an MTT assay as listed in Table 1. […] Compound 3b gave SI of 6, and compound 4c gave SI = 12 showing better selectivity toward cancer cells than doxorubicin with SI = 5.
as §2

WI38 cells = test: MTT assay on normal nononcogenic cell line WI38; type: cell-based; conditions: calculated by dividing the IC50 of WI38/PC-3; SI > 2 is considered safe
Description: as §3, §2

VEGFR-2 [3] = molecular target: T1, VEGFR-2 (Homo sapiens, UniProt P35968); test: VEGFR-2 phosphorylation cell-based ELISA in HepG2 cells; conditions: compounds at their formerly determined IC50
Description: VEGFR-2 phosphorylation was assayed using VEGFR2 Antibody (Phospho-Tyr951) (OAEC00085, AVIVA SYSTEM BIOLOGY) [53], while Akt-1 was assayed by Mouse/Human/Rat Phospho-AKT1 (Ser473) (Cell-Based Phosphorylation ELISA) ELISA Kit-LS-F1447 (LSBio) according to manufacturer’s instructions [54].

AKT-1 [4] = molecular target: T2, AKT-1 (Homo sapiens, UniProt P31749); test: Akt kinase activity assay kit on cell lysate; type: biochemical; conditions: LY2780301 as reference
Description: (§5) The outcomes were expressed as IC50 values (mean standard deviation) calculated from the dose–response curves and their linear regression equations.

HepG2 cells [5] = test: Flow cytometric cell cycle analysis; type: cell-based; conditions: HepG2, 48 h, at IC50
Description: AKT-1 is known for its downstream activation of several proteins involved in cell proliferation and apoptosis evasion. In addition, it is reported to be involved in G1–S checkpoint transition and proliferation.
(§4) Analyzing the DNA content in the cell cycle phases by flow cytometry was conducted using FACSCalibur (Becton Dickinson, Franklin Lakes, NJ, USA) following the manufacturer’s manual. The cell cycle analysis procedures were as reported by on HepG2 cells after their treatment with the most promising derivatives for 48 h. Further assessment of the proapoptotic effect was determined by the Annexin V-FITC/PI apoptosis detection kit (Catalog # K101-25, BD Biosciences, San Diego, CA, USA).

HepG2 cells [6] = test: Annexin V-FITC/PI apoptosis detection; type: cell-based; conditions: HepG2, 48 h
Description: Annexin V/PI staining with flow cytometric analysis was adapted to measure early and late apoptotic cells and necrotic cells as presented in Table 3 and Figure 6.
as §4

caspase-3 = test: Active caspase-3 ELISA in HepG2 cells; type: cell-based, human
Description: Apoptosis is known to be carried out through three different pathways: intrinsic, extrinsic, and granzyme pathways. One of the controlling proteins in apoptosis is the cysteine protease named caspase with the chief executer caspase 3 [46, 47]. Accordingly, assessing the effect of 3b and 4c on the active caspase-3 level was done in HepG2 cells taking doxorubicin as the reference drug.
The colorimetric ELISA assay for active caspase-3 detection was carried out utilizing Invitrogen™ Caspase-3 (Cleaved) Human ELISA-Kit (KHO1091, CA, USA) according to the manufacturer’s procedures. ROBONIK P2000 ELISA reader was used at 450 nm, and the standard curve was obtained by plotting the mean absorbance of each standard concentration against human caspase-3 concentrations.

VEGFR-2 [7] = molecular target: T1, VEGFR-2; test: VEGFR2 (KDR) kinase assay kit; type: biochemical; parameters: purchased BPS Bioscience 40325; conditions: read-out: VEGFR-2 kinase inhibitory activity IC50
Description: as §5

AKT-1 [8] = molecular target: T2, AKT-1; test: Phospho-AKT1 (Ser473) cell-based phosphorylation ELISA in HepG2 cells; parameters: endogenous in cells; host or cells: HepG2
Description: To investigate the success of the design strategy developed in this work, the effect of the promising candidates 3b and 4c was assessed on AKT-1, a crucial protein, by determining their phosphorylation inhibition rate in HepG2 cells and measuring their biochemical kinase inhibitory activity.
VEGFR-2 phosphorylation was assayed using VEGFR2 Antibody (Phospho-Tyr951) (OAEC00085, AVIVA SYSTEM BIOLOGY), while Akt-1 was assayed by Mouse/Human/Rat Phospho-AKT1 (Ser473) (Cell-Based Phosphorylation ELISA) ELISA Kit-LS-F1447 (LSBio) according to manufacturer’s instructions.

lung, ovarian, CNS cells = system: lung, ovarian, CNS cells; parameters: method as in PMID 28759878; conditions: read-out: IC50 range in lung, ovarian, CNS cells; cited from earlier work
FAK = system: FAK; parameters: method as in PMID 20050669, PMID 31923858; conditions: cited from earlier work
PC3 cells = system: PC3 cells; parameters: method as in PMID 33328104; conditions: cited from earlier work
HUVEC cells = system: HUVEC cells; parameters: method as in PMID 33328104; conditions: cited from earlier work

T2 sequence (P31749 whole entry): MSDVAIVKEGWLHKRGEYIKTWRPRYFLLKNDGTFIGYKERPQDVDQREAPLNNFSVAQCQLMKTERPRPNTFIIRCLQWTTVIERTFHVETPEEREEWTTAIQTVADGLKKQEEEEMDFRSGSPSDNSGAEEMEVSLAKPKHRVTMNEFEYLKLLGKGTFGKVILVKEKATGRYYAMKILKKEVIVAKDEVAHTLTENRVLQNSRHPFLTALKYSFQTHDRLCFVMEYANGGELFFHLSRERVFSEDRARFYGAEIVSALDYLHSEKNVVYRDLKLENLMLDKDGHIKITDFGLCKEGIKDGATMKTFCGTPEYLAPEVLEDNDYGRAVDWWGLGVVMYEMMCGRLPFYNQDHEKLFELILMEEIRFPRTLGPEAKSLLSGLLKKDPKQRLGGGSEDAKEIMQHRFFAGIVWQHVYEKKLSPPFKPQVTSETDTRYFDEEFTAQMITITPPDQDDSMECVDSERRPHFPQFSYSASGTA
T1 sequence (P35968 20-1356): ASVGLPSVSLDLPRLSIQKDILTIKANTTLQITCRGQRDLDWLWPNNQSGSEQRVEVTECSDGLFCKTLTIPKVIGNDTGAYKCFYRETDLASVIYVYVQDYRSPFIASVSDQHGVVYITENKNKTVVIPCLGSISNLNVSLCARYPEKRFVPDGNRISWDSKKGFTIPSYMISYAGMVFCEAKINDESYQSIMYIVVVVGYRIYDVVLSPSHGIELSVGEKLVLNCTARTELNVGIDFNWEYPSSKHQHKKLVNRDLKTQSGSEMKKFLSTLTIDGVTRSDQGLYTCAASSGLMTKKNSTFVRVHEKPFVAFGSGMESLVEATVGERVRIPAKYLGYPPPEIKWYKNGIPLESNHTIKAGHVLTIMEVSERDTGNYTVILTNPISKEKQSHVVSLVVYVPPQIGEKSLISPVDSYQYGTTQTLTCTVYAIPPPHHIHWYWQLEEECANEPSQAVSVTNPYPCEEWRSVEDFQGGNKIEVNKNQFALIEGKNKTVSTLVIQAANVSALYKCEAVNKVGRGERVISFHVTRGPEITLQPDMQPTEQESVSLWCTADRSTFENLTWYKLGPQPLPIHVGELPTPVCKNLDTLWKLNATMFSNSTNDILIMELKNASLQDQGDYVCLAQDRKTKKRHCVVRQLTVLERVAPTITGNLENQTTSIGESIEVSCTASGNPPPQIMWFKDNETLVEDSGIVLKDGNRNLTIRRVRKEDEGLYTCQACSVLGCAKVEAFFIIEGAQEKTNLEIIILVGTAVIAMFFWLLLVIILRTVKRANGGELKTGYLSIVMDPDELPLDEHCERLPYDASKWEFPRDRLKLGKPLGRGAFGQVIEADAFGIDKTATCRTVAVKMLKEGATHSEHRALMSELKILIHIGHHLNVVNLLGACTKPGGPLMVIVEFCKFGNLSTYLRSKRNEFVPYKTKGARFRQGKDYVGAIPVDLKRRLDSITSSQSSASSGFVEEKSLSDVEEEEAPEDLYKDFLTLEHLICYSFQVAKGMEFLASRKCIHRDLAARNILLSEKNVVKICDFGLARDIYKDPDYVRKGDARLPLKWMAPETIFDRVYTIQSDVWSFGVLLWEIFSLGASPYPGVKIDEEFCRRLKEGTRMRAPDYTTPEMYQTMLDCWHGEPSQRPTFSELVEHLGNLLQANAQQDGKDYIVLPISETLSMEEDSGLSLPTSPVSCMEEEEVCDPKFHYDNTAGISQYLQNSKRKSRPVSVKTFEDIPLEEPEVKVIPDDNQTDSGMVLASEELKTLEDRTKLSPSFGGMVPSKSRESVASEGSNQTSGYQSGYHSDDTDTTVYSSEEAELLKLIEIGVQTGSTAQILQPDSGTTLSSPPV

VEGFR-2 phosphorylation inhibition (VEGFR-2 [3]): 58.3%
IC50 (AKT-1 [4]): 6.96 µM
melting point: 168 °C
IC50 (VEGFR-2 [7]): 0.126 µM
AKT-1 phosphorylation inhibition rate (AKT-1 [8]): 63%
Compound: CN1CCc2sc3nc(-c4ccc(Cl)cc4)[nH]c(=O)c3c21 [3b, 2-(4-Chlorophenyl)-5-methyl-3,5,6,7-tetrahydro-4H-pyrrolo[2′,3′:4,5]thieno[2,3-d]pyrimidin-4-one]
IC50 (HepG2 cells [1]; Homo sapiens, HepG2, MTT assay): 3.1 µM
IC50 (HepG2 cells [1]; MTT assay): 3.11 ± 0.14 µM
IC50 (PC-3 cells): 2.15 ± 0.12 µM
IC50 [2]: 12.5 ± 0.68 µM
Selectivity Index (SI) (WI38 cells): 6 and 5.79
% Content of DNA, G0:G1 (HepG2 cells [5]): 39.42%
% Content of DNA, G2:M (HepG2 cells [5]): 4.39%
% Content of DNA, PreG1 (HepG2 cells [5]): 42.06%
% Content of DNA, S (HepG2 cells [5]): 56.19%
Cell cycle comment (phase of arrest) (HepG2 cells [5]): cell growth arrest@ S
Increase in early apoptotic cells over untreated cells (HepG2 cells [6]): 5 fold
Increase in late apoptotic cells over untreated cells (HepG2 cells [6]): 144 fold
Apoptosis, Total (cells percentage) (HepG2 cells [6]; at IC50): 42.06%
Apoptosis, Early (cells percentage) (HepG2 cells [6]; at IC50, Q2 in Figure 6): 2.51%
Apoptosis, Late (cells percentage) (HepG2 cells [6]; at IC50, Q3 in Figure 6): 24.53%
Necrosis (cells percentage) (HepG2 cells [6]; at IC50, Q4 in Figure 6): 15.02%
Increase in active caspase-3 level over the untreated cells (caspase-3): five-fold

Compound: COc1ccc(-c2nc3sc4c(c3c(=O)[nH]2)CCCC4)cc1 [III]
IC50 (lung, ovarian, CNS cells): 0.6 to 1.2 µM

Compound: COc1ccccc1-c1csc2cnc(Nc3ccc(C(=O)NC4CCNCC4)c(F)c3)nc12 [II]
IC50 (FAK): 0.0282 µM

Compound: O=C(Nc1ccc(Cl)c(Cl)c1)Nc1nnc(Sc2ncnc3scc(-c4ccncc4)c23)s1 [V]
Pro-apoptotic effect in PC3 cells (PC3 cells): 44%
Pro-apoptotic effect in HUVEC cells (HUVEC cells): 28.45%

From publication PMC9229165, “In Vitro Anticancer Activity Screening of Novel Fused Thiophene Derivatives as VEGFR-2/AKT Dual Inhibitors and Apoptosis Inducers” (Pharmaceuticals, 2022)
